Data set [1] has as its system SH-SY5Y cells. Kind of data set: In vitro anti-apoptosis assay (Caspase-Glo 3/7) on SH-SY5Y cells with staurosporine. Format: cell-based, human. As to conditions: SH-SY5Y cells, compound 1 µM plus staurosporine 0,5 µM; sham 26 %, Fig. 5.
Data set [2] relates to neural stem cells. The data set can be described thus: In vitro differentiation assay on adult neuronal stem cells (beta-III-tubulin promoter dual luciferase reporter). As to conditions: final concentrations of 1 µM and 10 µM, Fig. 4. Format: cell-based, Wistar rats. From the text: The neuroregenerative effect of the compounds according to the present invention can be assayed in vitro by measuring their stimulation of the differentiation of neuronal stem cells. Therefore, adult neuronal stem cells have to be isolated and subsequently cultivated in a suitable culture medium. After several passages in vitro the stem cells have to be co-transfected with a DNA construct coding for two discriminable reporter proteins one of them under the control of a constitutive promoter and the other under the control of a beta-III-tubulin promoter. The beta-III-tubulin promoter is induced during the process of neuronal stem cell differentiation; therefore the reporter protein under the control of this promoter serves as a marker for the stem cell differentiation in such an in vitro dual reporter assay (Schneider et al., J Clin Investigation 2005; 115:2083-2098). The person skilled in the art knows several suitable constitutive promoters such as the SV40-promoter, the TK-promoter, or the CMV-promoter. As discriminable reporter proteins for such a dual reporter assay one can use discriminable luciferases such as firefly luciferase and Renilla luciferase. The transfected cells have to be incubated with the test compound and with positive and negative controls for normalization and background correction. As a positive control compound one can use retinoic acid (Guan et al., Cell Tissue Res. 2001; 305:171-176; Jacobs et al., Proc. Natl. Acad. Sci. USA 2006; 103:3902-3907), a suitable negative control is the sham treatment of the cells. The neroregenerative activity of the test compound is determined as the ratio of the signal of the beta-III-tubulin promoter controlled reporter versus the signal of the constitutively expressed reporter and is expressed as fold from the control. This assay is suitable to assess the neuroregenerative activity of thiabendazole and derivatives thereof, but also can be used to screen for other potential neuroregenerative compounds. Preferably, such a screening can be used to test compounds which are already known to be suitable as a medicament in terms of its toxicology, bioavailability, solubility, stability etc.
In vitro differentiation assay on adult neuronal stem cells with thiabendazole Neural stem cells were isolated from the subventricular zone of 4 week-old male Wistar rats as described (Maurer et al, Proteome Sci. 2003; 1:4). Cells were cultivated in Neurobasal medium (Invitrogen) supplemented with B27 (Invitrogen), 2mM L-glutamine, 100units/ml penicillin, 100units/ml streptomycin, 20ng/ml […] (EGF), 20ng/ml fibroblast growth factor-2 (FGF-2), and 2µg/ml heparin. Once a week the neural stem cells were passaged and experiments were performed after 4 weeks in vitro. For DNA transfection, the cells were dissociated and plated on poly-L-ornithin/laminin-coated 96-well plates at a density of 50.000 cells/well. Cotransfection with the pGL3-p-βIII-tubulin vector (100ng/well) and the pRL SV40 vector (100ng/well) was carried out according to the FuGene6 Transfection protocol (Roche). The pRL SV40 vector (Promega) served as an internal control vector.
To amplify the class III β-tubulin gene promoter (fragment -450 - +54), rat genomic DNA was used as a template for PCR (Dennis et al., Gene 2002;294:269-277). The amplified fragment was inserted into the Mlu I/Xho I site of the pGL3-Basic firefly luciferase reporter vector (Promega) to generate the pGL3-p-βIII-tubulin experimental vector.
After overnight incubation, the plate was decanted and given in 8-fold replicates fresh medium containing thiabendazole (Sigma) or vehicle. As a positive control for in vitro differentiation, stem cells were treated by adding 1 µM retinoic acid (Sigma) to the medium missing the mitogens.
After 48hrs, the cells were harvested to prepare the cellular extracts for luciferase assay following the directions of the manufacturer (Promega). […]
(A reporter such as luciferase makes a cellular process visible.)

For data set [3], the system named is primary cortical neurons. The data set can be described thus: In vitro anti-apoptosis assay (Caspase-Glo 3/7) on primary cortical neurons with staurosporine. Format: cell-based, Wistar rat. The settings on record: sham 11 %. From the text:
(§1) Neuroprotection is attainable via the inhibition of apoptosis of affected neurons. The anti-apoptotic effect of thiabendazole and its derivatives can be assayed in vitro by measuring the caspase-3 and caspase-7 activities. These members of the cysteine aspartic acid-specific protease (caspase) family play key effector roles in apoptosis in mammalian cells. Cortical neurons have to be isolated and subsequently cultivated in a suitable culture medium. […] Parallel approaches with staurosporine alone and sham treatment of the cells serve as […]. The assay allows evaluating whether the test compound can compensate either completely or partially for the apoptotic effect of staurosporine.
(§2) The neuroprotective effect of compounds can be assayed in vitro by measuring caspase-3 and caspase-7 activities. These members of the cysteine aspartic acid-specific protease (caspase) family play a key effector role in apoptosis in mammalian cells.
These cells were isolated from twelve to fourteen cortices dissected from Wistar rat embryos on E18. The tissue was dissociated using 0,25 mg/ml trypsin, 0,1 mg/ml EDTA (Sigma), 100 µg/ml DNase (Roche Diagnostics Corp.) in HBSS. The digestion was stopped using 3 parts MEM-medium containing 10 % fetal calf serum, 0,45 % D-(+)glucose, 1 mM sodium-pyruvate and 0,25 µM glutamate. The cells were singularized by 10 strokes with a burnished Pasteur-pipette. After centrifugation, the cell pellet was dissolved in 10 ml medium and plated at a density of 30000 cells per well on a 96-well plate coated with poly-L-lysine for caspase-assays. […] Incubation with staurosporine (SP; 0,5 µM) alone served as positive control and incubation with vehicle (sham) served as negative control.

The subject of data set [4] is SH-SY5Y neuronal cells. The data set can be described thus: In vitro viability assay (constitutive Renilla luciferase reporter). It is filed as cell-based, human. As to conditions: final concentration of 1 µM and of 10 µM, Fig. 7. Here is the method: The viability assay allows for further assessment of test compounds regarding their effect on cells such as neurons. Therefore, a stably transfected cell line (e.g. SH-SY5Y cells) with a reporter construct (e.g. a luciferase construct) has to be incubated with the test compound and in parallel with positive and negative controls (e.g. staurosporine and sham, respectively). Subsequently, the signal generated by the reporter construct serves as a readout for the viability of the cells in the presence of the test compound. The assay enables the evaluation of potential neurotoxic effects of the test compound itself.
The effect of a compound on the viability of neuronal cells can be assayed in vitro by measuring the survival of neuronal cells transfected with a reporter construct under a constitutive promoter. SH-SY5Y neuronal cells stably transfected with a Renilla luciferase construct under the SV40 promoter were seeded in 96-well plates at a density of 2,5 x 10^4 cells per well. Following overnight incubation the cells were stimulated with medium containing thiabendazole or vehicle. Staurosporine (0,5 µM) served as positive control. The Renilla luciferase activity was measured 5 h later using a luminometer (Berthold Technologies, Mithras LB 940). Thiabendazole was tested in a range from 0,8 µM to 50 µM final concentration.
Analogously, thiabendazole (A; Sigma) and various derivatives thereof (2-(1,3-thiazol-5-yl)-benzimidazole (B; ChemBridge Corporation), 4-(benzimidazol-2-yl)-1,3-thiazol-2-amine (C; ChemBridge Corporation), 2-(2-thienyl)-benzimidazole (D; ChemBridge Corporation), or 2-(1,3-thiazol-4-yl)-benzimidazole-5-ol (E; Witega GmbH), Fig. 8) have been analysed for their effect on the viability of neuronal cells. The compounds were tested in a final concentration of 1 µM and of 10 µM.

Data set [5] has as its system SH-SY5Y cells. The data set can be described thus: In vitro anti-apoptosis assay (Caspase-Glo 3/7) on SH-SY5Y cells with staurosporine. It is filed as cell-based, human.
Excerpt: as §1, §2
The human neuroblastoma cell-line SH-SY5Y (American Type Culture Collection) maintained in DMEM with high glucose supplemented with 20% FBS was used for the apoptosis assay. Alternatively one can analyse the apoptosis of primary cortical neurons which can be isolated from E18 rats and subsequently cultivated in suitable culture medium. 2,5 x 10^4 SH-SY5Y cells were seeded in 96-well plates and stimulated 24 h later with thiabendazole or vehicle in the presence of the apoptosis inducing compound staurosporine (0,1 µM, Calbiochem). After 5h incubation at 37 °C, caspase-Glo 3/7 reagent (Promega) containing luciferase and luminogenic substrate was added to the cells. The cleavage of the substrate by caspase-3 and caspase-7 was detected 30 min later using a luminometer (Berthold Technologies, Mithras LB 940). The Luminescence which is proportional to the amount of caspase activity serves as a measure for the apoptosis of the treated neurons. Thiabendazole was tested in a range from 0,8 µM to 100 µM final concentration.
Incubation with staurosporine (SP; 0,5 µM) alone served as positive control and incubation with vehicle (sham) served as negative control.

[6] abbreviates: compound 1 µM plus staurosporine 0,5 µM, Fig. 6.

The structures appear in SMILES notation.

On to `c1ccc2[nH]c(-c3cncs3)nc2c1` [B, 2-(1,3-thiazol-5-yl)-benzimidazole], for which the “degree of apoptosis relative to the staurosporine control” value in data set [1] amounted to 65%; in data set [3] (setting [6]) it was 55%. Besides, in data set [2], the “differentiation of neural stem cells to neurons (relative induction of the class III β-tubulin gene promoter controlled luciferase signal)” value is listed as “significantly stimulate the differentiation of neural stem cells to neurons”.

Take `Nc1nc(-c2nc3ccccc3[nH]2)cs1` [C, 4-(benzimidazol-2-yl)-1,3-thiazol-2-amine]: the “degree of apoptosis relative to the staurosporine control” value was 46% in data set [1] and 52% in data set [3] (setting [6]). For the same compound, in data set [2], the “differentiation of neural stem cells to neurons (relative induction of the class III β-tubulin gene promoter controlled luciferase signal)” value is recorded as “significantly stimulate the differentiation of neural stem cells to neurons”. Moreover, the “viability of neuronal cells (Renilla luciferase activity)” value in data set [4] is “did not show any significantly reduced viability”.

Take `c1csc(-c2nc3ccccc3[nH]2)c1` [D, 2-(2-thienyl)-benzimidazole]: the “degree of apoptosis relative to the staurosporine control” value in data set [1] turned out to be 65%; in data set [3] (setting [6]) it was 49%. Moreover, the “differentiation of neural stem cells to neurons (relative induction of the class III β-tubulin gene promoter controlled luciferase signal)” value in data set [2] is recorded as “significantly stimulate the differentiation of neural stem cells to neurons”.

For the compound `Oc1ccc2nc(-c3cscn3)[nH]c2c1` [E, 2-(1,3-thiazol-4-yl)-benzimidazole-5-ol], the “degree of apoptosis relative to the staurosporine control” value in data set [1] is given as 83%; in data set [3] (setting [6]), 60%. For the same compound, the “differentiation of neural stem cells to neurons (relative induction of the class III β-tubulin gene promoter controlled luciferase signal)” value in data set [2] is reported as “significantly stimulate the differentiation of neural stem cells to neurons”.

`CN[C@@H]1C[C@H]2O[C@@](C)([C@@H]1OC)n1c3ccccc3c3c4c(c5c6ccccc6n2c5c31)C(=O)NC4` [staurosporine]: the “degree of apoptosis relative to the staurosporine control” value in data set [3] (staurosporine 0,5 µM alone (positive control)) worked out at 100%; in data set [5] (SH-SY5Y cells, staurosporine 0,5 µM alone (positive control), sham 26 %), 100%. Further, in data set [5] (0,1 µM staurosporine alone (reference, set to 100 %), sham 10 %), the “staurosporine induced apoptosis (caspase-3 and caspase-7 activity)” value was 100%.

The values are drawn from patent EP2251010A1, “Use of thiabendazole and derivatives thereof for the therapy of neurological conditions” (Sygnis Bioscience GmbH & Co. KG, priority 2009, dated 2010).
